According to publication PMC11306077, “Diterpenoids target SARS-CoV-2 RdRp from the roots of Euphorbia fischeriana Steud” (Frontiers in Plant Science, 2024):

Biological target: T1, SARS-CoV-2 RdRp (RNA-dependent RNA polymerase, NSP12) (Severe acute respiratory syndrome coronavirus 2, UniProt P0DTD1)
T1 construct: gene rep
Experiment: microscale thermophoresis (MST)
Assay type: binding

C[C@H]1C(=O)CC[C@]2(C)[C@@H]1CC[C@@]13CC[C@@H]([C@@H](O)[C@H]12)[C@]1(COC(C)(C)O1)C3 [compound 1, (4R,5S,8S,9S,10R,11S,12S,16S)-ent-11α-hydroxy-16α,17-acetonide-19-noratisan-3-one]
Kd: 31.1 µM
